Results reported in PMC3513969 (Evidence-based Complementary and Alternative Medicine : eCAM, 2012).

Assays:
[1] = Pharmacokinetic interaction between gemfibrozil and LipoCol Forte; assay type: in vivo, human; details: for CL/F: mean ± SD, n = 13
Protocol: The volunteers were fasted overnight before dosing and a high fat breakfast or dinner was served 0.5 h after administration of gemfibrozil. […] Blood samples were prepared as described in the previous section (dose-escalation study).

[2] = Single dose escalation and multiple dosing pharmacokinetic study of LipoCol Forte; details: for AUC0–12/dose / AUC0–inf/dose / CL/F / Cmax/dose / AUC(0-t) / AUC(0-inf) / Cmax / MRT / half-life / Tmax / Vd/F: fed, mean ± SD, n = 14; for AUC(0-t) / AUC(0-inf) / Cmax / MRT / half-life / Tmax / Vd/F: human, plasma, oral; for AUC(0-t): AUC0–12, healthy subjects; for AUC(0-inf): AUC0–inf; for half-life: T1/2, healthy subjects
Protocol: A high fat breakfast (including two eggs fried in butter, two strips of bacon, two slices of toast with butter, four ounces of hash brown potatoes, and eight ounces of whole milk) was provided 30 min before dosing. All doses were administered with 240 mL of water. […] A high fat breakfast or dinner was served 30 min before dosing. One capsule was administered with 240 mL of water. […] Within 30 min of collection, the samples were centrifuged at 2,600 g for 10 minutes at 4°C and the plasma transferred to labeled polypropylene tubes containing 50 μL of 17% phosphoric acid and stored at −80°C until analysis.
The pharmacokinetics were characterized, when appropriate, by the peak concentration in the plasma (C max⁡), time to reach the peak concentration (T max⁡), area under the plasma concentration versus time curve from time zero to the time of the last quantifiable concentration (AUC0−t), AUC from time zero to the time extrapolated to infinity (AUC0−inf⁡), half-life (T 1/2), mean residence time (MRT), apparent clearance (CL/F), and apparent volume of distribution (V d/F).

P-gp = P-gp (Homo sapiens, UniProt P08183); assay type: cell-based; details: MDCK-MDR1 cells, 25 μM (extracts adjusted to 25 μM lovastatin)
Protocol: MDCK-MDR1 cells (2.5 × 10^4 cells/cm^2) (from The Netherlands Cancer Institute) were cultured in polystyrene Nunclon multidishes under an atmosphere of 5% CO2/95% air. The minimal essential medium (MEM) (Invitrogen, CA, USA) contained 10% fetal bovine serum (Hyclone, UT, USA), 5.5 mM L-glutamine, 1.5 mg/mL of sodium bicarbonate, and 1 mM sodium pyruvate (all from Sigma, MO, USA), and 100 unit/mL of penicillin and 0.1 mg/mL of streptomycin (both from Invitrogen). […] The percentage of inhibition of P-gp activity and the IC50 values for P-gp inhibition were determined by the methods described by Rautio et al..

[3] = human, plasma, oral, 1 LipoCol Forte capsule
[4] = healthy subjects, multiple doses one LipoCol Forte capsule BID for 5 days
[5] = healthy subjects, single dose four LipoCol Forte capsules
[6] = healthy subjects, single dose one LipoCol Forte capsule
[7] = healthy subjects, single dose two LipoCol Forte capsules
[8] = 1 LipoCol Forte capsule, multiple doses one LipoCol Forte capsule BID for 5 days
[9] = 1 LipoCol Forte capsule, single dose one LipoCol Forte capsule
[10] = 1 LipoCol Forte capsule, healthy subjects, multiple doses one LipoCol Forte capsule BID for 5 days
[11] = 1 LipoCol Forte capsule, healthy subjects, single dose one LipoCol Forte capsule
[12] = 2 LipoCol Forte capsules, single dose two LipoCol Forte capsules
[13] = 2 LipoCol Forte capsules, healthy subjects, single dose two LipoCol Forte capsules
[14] = 4 LipoCol Forte capsules, single dose four LipoCol Forte capsules
[15] = 4 LipoCol Forte capsules, healthy subjects, single dose four LipoCol Forte capsules

Sequence of P-gp (P08183 whole entry): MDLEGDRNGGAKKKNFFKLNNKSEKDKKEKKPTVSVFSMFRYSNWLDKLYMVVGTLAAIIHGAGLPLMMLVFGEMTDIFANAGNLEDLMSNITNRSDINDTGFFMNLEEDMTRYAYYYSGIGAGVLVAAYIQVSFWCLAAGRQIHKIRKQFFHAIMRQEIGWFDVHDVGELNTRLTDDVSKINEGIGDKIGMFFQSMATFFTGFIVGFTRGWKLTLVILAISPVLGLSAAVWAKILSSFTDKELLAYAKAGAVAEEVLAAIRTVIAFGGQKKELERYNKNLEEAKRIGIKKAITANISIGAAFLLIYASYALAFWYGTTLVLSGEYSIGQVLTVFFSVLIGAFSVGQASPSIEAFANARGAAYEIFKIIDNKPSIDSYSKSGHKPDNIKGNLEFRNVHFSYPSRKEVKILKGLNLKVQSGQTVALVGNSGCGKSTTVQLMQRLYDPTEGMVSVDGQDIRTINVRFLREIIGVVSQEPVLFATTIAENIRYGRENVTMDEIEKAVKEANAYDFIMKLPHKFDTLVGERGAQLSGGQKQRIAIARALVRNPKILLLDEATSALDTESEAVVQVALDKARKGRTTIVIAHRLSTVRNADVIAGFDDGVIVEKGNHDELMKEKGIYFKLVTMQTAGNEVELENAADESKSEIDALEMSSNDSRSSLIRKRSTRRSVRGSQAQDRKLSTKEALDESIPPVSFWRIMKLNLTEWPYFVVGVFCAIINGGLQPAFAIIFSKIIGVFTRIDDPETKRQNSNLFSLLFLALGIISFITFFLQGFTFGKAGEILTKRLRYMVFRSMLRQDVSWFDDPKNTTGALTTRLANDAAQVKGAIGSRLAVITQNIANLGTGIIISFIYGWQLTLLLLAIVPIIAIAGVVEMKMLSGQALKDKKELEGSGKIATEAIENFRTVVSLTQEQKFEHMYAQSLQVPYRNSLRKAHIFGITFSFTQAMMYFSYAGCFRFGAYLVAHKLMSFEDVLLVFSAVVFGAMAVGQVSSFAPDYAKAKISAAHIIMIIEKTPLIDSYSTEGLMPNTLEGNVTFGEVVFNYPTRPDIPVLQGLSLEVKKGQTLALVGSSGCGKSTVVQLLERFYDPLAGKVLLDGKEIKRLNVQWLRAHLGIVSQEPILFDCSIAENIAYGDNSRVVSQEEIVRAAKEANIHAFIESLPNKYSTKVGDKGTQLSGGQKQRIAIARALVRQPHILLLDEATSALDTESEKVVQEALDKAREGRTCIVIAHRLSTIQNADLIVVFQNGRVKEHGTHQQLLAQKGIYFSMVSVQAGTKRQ

CC[C@H](C)C(=O)O[C@H]1C[C@@H](C)C=C2C=C[C@H](C)[C@H](CC[C@@H](O)C[C@@H](O)CC(=O)O)[C@H]21 [Lovastatin acid, lovastatin acid]
Effect of concomitant gemfibrozil on pharmacokinetic parameters (AUC, Cmax) ([1]; healthy subjects, one LipoCol Forte capsule, gemfibrozil 600 mg twice daily): significantly increased
CL/F ([1]; healthy subjects, single dose one LipoCol Forte capsule alone): 218.4 ± 108.6 L/h
CL/F ([1]; healthy subjects, single dose one LipoCol Forte capsule with coadministration of 600 mg gemfibrozil twice daily): 99.9 ± 48.4 L/h
AUC(0-inf) [1, 3]: 33.1 ± 18.2 ng·h/mL
Cmax [1, 3]: 6.79 ± 3.78 ng/mL
MRT [1, 3]: 6.19 ± 1.38 h
Vd/F [1, 3]: 644 ± 586 L
half-life [1, 3]: 1.94 ± 0.75 h
AUC(0-t) ([1]; human, plasma, oral, 1 LipoCol Forte capsule, read-out: AUC0–12): 31.1 ± 16.5 ng·h/mL
Tmax ([1]; human, plasma, oral, 1 LipoCol Forte capsule, read-out: Tmax): 4.85 ± 1.14 h
AUC0–12/dose [2, 4]: 5.69 ± 1.70
AUC0–inf/dose [2, 4]: 5.92 ± 1.70
CL/F [2, 4]: 192.3 ± 63.7 L/h
Cmax/dose [2, 4]: 1.41 ± 0.57
AUC0–12/dose [2, 5]: 6.94 ± 2.64
AUC0–inf/dose [2, 5]: 7.42 ± 2.76
CL/F [2, 5]: 150.2 ± 45.9 L/h
Cmax/dose [2, 5]: 1.59 ± 0.75
AUC0–12/dose [2, 6]: 5.75 ± 2.30
AUC0–inf/dose [2, 6]: 6.72 ± 2.85
CL/F [2, 6]: 172.9 ± 68.1 L/h
Cmax/dose [2, 6]: 1.37 ± 0.72
AUC0–12/dose [2, 7]: 6.94 ± 2.42
AUC0–inf/dose [2, 7]: 7.50 ± 2.44
CL/F [2, 7]: 145.7 ± 43.1 L/h
Cmax/dose [2, 7]: 1.56 ± 0.81
Accumulation with multiple dosing ([2]; healthy subjects, one LipoCol Forte capsule twice daily for 5 days): no accumulation
Dose linearity of pharmacokinetic properties (AUC, Cmax) ([2]; healthy subjects, single dose of 1, 2 or 4 LipoCol Forte capsules): linear
AUC(0-t) [2, 8]: 32.4 ± 9.7 ng·h/mL
AUC(0-t) [2, 9]: 33 ± 13.1 ng·h/mL
AUC(0-inf) [2, 10]: 33.7 ± 9.7 ng·h/mL
AUC(0-inf) [2, 11]: 38.3 ± 16.2 ng·h/mL
Cmax [2, 10]: 8.04 ± 3.24 ng/mL
Cmax [2, 11]: 7.78 ± 4.12 ng/mL
MRT [2, 10]: 5.59 ± 1.15 h
MRT [2, 11]: 7.15 ± 3.3 h
half-life [2, 8]: 1.92 ± 0.34 h
half-life [2, 9]: 2.57 ± 1.74 h
Tmax [2, 10]: 4.36 ± 0.93 h
Tmax [2, 11]: 5.07 ± 1.59 h
Vd/F [2, 10]: 544 ± 241 L
Vd/F [2, 11]: 603 ± 337 L
AUC(0-t) [2, 12]: 79.1 ± 27.6 ng·h/mL
AUC(0-inf) [2, 13]: 85.4 ± 27.8 ng·h/mL
Cmax [2, 13]: 17.8 ± 9.21 ng/mL
MRT [2, 13]: 6.43 ± 1.77 h
half-life [2, 12]: 2.07 ± 0.68 h
Tmax [2, 13]: 5.14 ± 1.7 h
Vd/F [2, 13]: 438 ± 189 L
AUC(0-t) [2, 14]: 158 ± 60.2 ng·h/mL
AUC(0-inf) [2, 15]: 169 ± 62.9 ng·h/mL
Cmax [2, 15]: 36.2 ± 17.1 ng/mL
MRT [2, 15]: 6.39 ± 1.43 h
half-life [2, 14]: 2.04 ± 0.68 h
Tmax [2, 15]: 5 ± 1.52 h
Vd/F [2, 15]: 456 ± 265 L

C/C=C/C[C@@H](C)C(=O)[C@H]1C(=O)N[C@@H](C(C)C)C(=O)N(C)CC(=O)N(C)[C@@H](CC(C)C)C(=O)N[C@@H](C(C)C)C(=O)N(C)[C@@H](CC(C)C)C(=O)N[C@@H](C)C(=O)N[C@H](C)C(=O)N(C)[C@@H](CC(C)C)C(=O)N(C)[C@@H](CC(C)C)C(=O)N(C)[C@@H](C(C)C)C(=O)N1C [PSC833]
Inhibition of P-gp activity (digoxin uptake) (P-gp): highest inhibition
